Test results taken from patent US11767289B2, “Methods and compositions for pest control” (VMI Foundation, priority 2010, dated 2023).

Experiment: Solvent for extracting tyramides from dissected tissue
Type: physicochemical
Conditions: extraction of dissected tissue
Procedure: Mature male […] (winged male sexuals) were used in all experiments. Maturity could only be determined upon dissection and determination of whether or not the male's testes were degenerated. This is the key indicator of maturity. See Ball and Vinson, Int. J. Insect Morphol. Embryol. 13:283-294 (1984) for a description and figure of the fire ant male genitalia. Males were discarded if their testes were not degenerated. Dissection of the male reproductive system was carried out in a drop of water. The entire system included pairs of degenerated testes, seminal vesicle, accessory glands, and the single external genitalia. After dissection of the entire system the three sections were further dissected: A) degenerated testes and seminal vesicle; B) accessory glands; and C) external genitalia. […]

CC(=O)NCCc1ccc(O)cc1 [Compound 1, acetyl tyramide]
suitability of methylene chloride as solvent: poor solvent
